The results in this text go back to ChEMBL document CHEMBL1149163, “Application of predictive QSAR models to database mining: identification and experimental validation of novel anticonvulsant compounds” (J Med Chem, 2004).

For series [1], the species on record is Rattus norvegicus. As to the kind of experiment: Compound was evaluated for anticonvulsant activity by maximal electroshock seizure test, perorally in rats. The series is classed as functional. To be noted: po.
The nature of series [2]: Neurologic toxicity from rotarod test in rats, perorally. To be noted: rat, in vivo, po. The series is classed as organism-based. (In general: Falling from the rotarod earlier than controls is read as motor impairment.)
For series [3], the system named is Mus musculus. As to the kind of experiment: Compound was evaluated for anticonvulsant activity by maximal electroshock seizure test, intraperitoneally in mice. To be noted: ip. The class given is functional. (The maximal electroshock test induces tonic seizures with an electrical stimulus.)
A short description of series [4]: Neurologic toxicity from rotarod test in mice. The series is classed as organism-based. The conditions noted are these: mouse, in vivo.
Series [5] is described as follows: Neurologic toxicity from rotarod test in mice; Value ranges from >100 to <300. The series is classed as organism-based. To be noted: mouse, in vivo.
In series [6] the test system is Mus musculus. As to the kind of experiment: Compound was evaluated for anticonvulsant activity by maximal electroshock seizure test, intraperitoneally in mice; Value ranges from >100 to <300. The series is classed as functional. To be noted: ip.
Series [7] in a line: Neurologic toxicity from rotarod test in rats, perorally; Value ranges from >100 to <300. The class given is organism-based. To be noted: rat, in vivo, po.
The species entered for series [8] is Rattus norvegicus. The series is described as follows: Compound was evaluated for anticonvulsant activity by maximal electroshock seizure test, perorally in rats; Value ranges from >100 […]. The series is classed as functional. The conditions noted are these: po.
For series [9], the system named is Mus musculus. The series is described as follows: Compound was evaluated for anticonvulsant activity by maximal electroshock seizure test, intraperitoneally in mice; Value ranges from >100 […]. The class given is functional. The conditions noted are these: ip.
Series [10] in a line: Neurologic toxicity from rotarod test in mice; Value ranges from >100 […]. The series is classed as organism-based. The conditions noted are these: mouse, in vivo.

Broadly, the ED50 is the midpoint of the dose-response relation. The low end stands for an effect at a small dose, the high end for a need for a large dose. As a reminder, the TD50 is the dose at which the toxic effect under study appears in half of the subjects. Read a low TD50 as greater toxicity. Consider `CCNCC(=O)Nc1c(C)cccc1C`, for which the ED50 in the series filed under Rattus norvegicus [1] turned out to be 11 mg/kg; in the series on Mus musculus [3] it was 18 mg/kg. The TD50 in series [2] is over 500 mg/kg; in [4], 50 mg/kg.
On to `Cc1cccc(NC(=O)N(C)C)c1`, for which the TD50 is under 300 mg/kg in [5] and over 30 mg/kg in [2].
With `CON(C)C(=O)C(C)NC(=O)OCc1ccccc1` (configuration not stated), the TD50 was under 300 mg/kg in series [5] and over 30 mg/kg in series [2]. Further, the ED50 in the series with Mus musculus [6] is under 300 mg/kg; in the series filed under Rattus norvegicus [1], about 30 mg/kg.
As for `CON(C)C(=O)CNC(=O)OCc1ccccc1`, the TD50 in series [2] was over 30 mg/kg; in series [4], 140 mg/kg.
With `CNC(=O)CNC(=O)OCc1ccccc1`, the TD50 was under 300 mg/kg in series [5] and over 100 mg/kg in series [7]. Also, the ED50 in the series filed under Rattus norvegicus [8] is under 30 mg/kg; in the series with Mus musculus [9] it was over 100 mg/kg.
With `CN(C)C(=O)CNC(=O)OCc1ccccc1`, the TD50 in series [2] was over 30 mg/kg; in series [4], 130 mg/kg.
For `CCNC(=O)CNC(=O)OCc1ccccc1`, the values for the TD50 in series [10] and in [2] were under 300 mg/kg and over 500 mg/kg, respectively.
Regarding `COCC(NC(C)=O)C(=O)N(C)Cc1ccccc1` (configuration not stated), in the series with Mus musculus [6], the ED50 was under 300 mg/kg.
Consider `CCN(CC)C(=O)CNC(=O)OCc1ccccc1`, for which the TD50 is over 30 mg/kg in series [2] and 91 mg/kg in series [4].
Turning to `CCN(CC)C(=O)C(C)NC(=O)OCc1ccccc1` (configuration not stated), the ED50 in the series listed under Rattus norvegicus [1] is under 30 mg/kg; in the series with Mus musculus [3] it was 74 mg/kg. Besides, the TD50 in series [2] was over 30 mg/kg; in series [4] it was 130 mg/kg.
